# How the values were obtained:
# [1] = system: Enterococcus faecalis; assay: Antibacterial activity against vancomycin-resistant Enterococcus faecalis 12 by dilution susceptibility test; type: functional
# [2] = system: Enterococcus faecium; assay: Antibacterial activity against vancomycin-resistant Enterococcus faecium 7 by dilution susceptibility test; type: functional
# [3] = system: Acinetobacter baumannii; assay: Antibacterial activity against Acinetobacter baumannii LMG1041 after 16 to 24 hrs by broth microdilution method; type: functional
# [4] = Cytotoxicity against human HepG2 cells after 48 hrs by XTT assay; type: cell-based
# [5] = system: Staphylococcus aureus; assay: Antibacterial activity against methicillin-resistant Staphylococcus aureus LMG 15975 after 16 to 24 hrs by broth microdilution method; type: functional
# [6] = system: Staphylococcus aureus; assay: Antibacterial activity against macrolide-resistant Staphylococcus aureus 853E after 16 to 24 hrs by broth microdilution method; type: functional
# [7] = system: Streptococcus pneumoniae; assay: Antibacterial activity against tetracycline-resistant Streptococcus pneumoniae TE 122-026 by dilution susceptibility test; type: functional
# [8] = system: Staphylococcus aureus; assay: Antibacterial activity against tetracycline-resistant Staphylococcus aureus 4216 after 16 to 24 hrs by broth microdilution method; type: functional
# [9] = system: Staphylococcus aureus; assay: Antibacterial activity against methicillin-resistant Staphylococcus aureus 4384 after 16 to 24 hrs by broth microdilution method; type: functional
# [10] = system: Staphylococcus aureus; assay: Antibacterial activity against Staphylococcus aureus CCUG 1800 after 16 to 24 hrs by broth microdilution method; type: functional
# [11] = system: Staphylococcus aureus; assay: Antibacterial activity against quinolone-resistant Staphylococcus aureus FR 131 after 16 to 24 hrs by broth microdilution method; type: functional
# [12] = system: Staphylococcus aureus; assay: Antibacterial activity against macrolide-resistant Staphylococcus aureus PK2 after 16 to 24 hrs by broth microdilution method; type: functional
# [13] = system: Staphylococcus aureus; assay: Antibacterial activity against mupirocin-resistant Staphylococcus aureus V55 after 16 to 24 hrs by broth microdilution method; type: functional
# [14] = system: Staphylococcus aureus; assay: Antibacterial activity against macrolide-resistant Staphylococcus aureus 56 Japan after 16 to 24 hrs by broth microdilution method; type: functional
# [15] = system: Staphylococcus aureus; assay: Antibacterial activity against Staphylococcus aureus ATCC 29213 after 16 to 24 hrs by broth microdilution method; type: functional
# [16] = system: Staphylococcus aureus; assay: Antibacterial activity against methicillin-resistant Staphylococcus aureus MO17 after 16 to 24 hrs by broth microdilution method; type: functional
# [17] = system: Streptococcus pyogenes; assay: Antibacterial activity against macrolide-sensitive Streptococcus pyogenes 29A-TF by dilution susceptibility test; type: functional
# [18] = system: Staphylococcus aureus; assay: Antibacterial activity against methicillin-resistant Staphylococcus aureus PICI after 16 to 24 hrs by broth microdilution method; type: functional
# [19] = system: Streptococcus pneumoniae; assay: Antibacterial activity against macrolide-resistant Streptococcus pneumoniae BAA1407 by dilution susceptibility test; type: functional
# [20] = system: Bacillus cereus; assay: Antibacterial activity against Bacillus cereus CCUG 7414 by dilution susceptibility test; type: functional
# [21] = system: Streptococcus pyogenes; assay: Antibacterial activity against macrolide-resistant Streptococcus pyogenes 2 Finland by dilution susceptibility test; type: functional
# [22] = system: Staphylococcus epidermidis; assay: Antibacterial activity against methicillin-susceptible Staphylococcus epidermidis RO7 by dilution susceptibility test; type: functional
# [23] = system: Streptococcus pneumoniae; assay: Antibacterial activity against macrolide-resistant Streptococcus pneumoniae 158bg by dilution susceptibility test; type: functional
# [24] = Cytotoxicity against human MT4 cells after 48 hrs by XTT assay; type: cell-based
# [25] = system: Streptococcus pyogenes; assay: Antibacterial activity against macrolide-resistant Streptococcus pyogenes 21 Finland by dilution susceptibility test; type: functional
# [26] = system: Pseudomonas aeruginosa; assay: Antibacterial activity against Pseudomonas aeruginosa LMG6395 by dilution susceptibility test; type: functional
# [27] = Cytotoxicity against human HuH7 cells after 48 hrs by XTT assay; type: cell-based, Huh-7
# [28] = system: Streptococcus pneumoniae; assay: Antibacterial activity against macrolide-sensitive Streptococcus pneumoniae SP030 by dilution susceptibility test; type: functional
# [29] = system: Streptococcus pneumoniae; assay: Antibacterial activity against quinolone-sensitive Streptococcus pneumoniae 19A-TN by dilution susceptibility test; type: functional
# [30] = system: Escherichia coli; assay: Antibacterial activity against Escherichia coli LMG15862 by dilution susceptibility test; type: functional
# [31] = system: Streptococcus pneumoniae; assay: Antibacterial activity against quinolone-resistant Streptococcus pneumoniae TE 122-024 by dilution susceptibility test; type: functional
# [32] = system: Staphylococcus epidermidis; assay: Antibacterial activity against methicillin-resistant Staphylococcus epidermidis TA12 by dilution susceptibility test; type: functional
# [33] = system: Enterococcus faecalis; assay: Antibacterial activity against vancomycin-sensitive Enterococcus faecalis 24 by dilution susceptibility test; type: functional
# [34] = system: Staphylococcus aureus; assay: Antibacterial activity against Staphylococcus aureus LMG 10147 after 16 to 24 hrs by broth microdilution method; type: functional
# [35] = system: Mycolicibacterium frederiksbergense; assay: Antibacterial activity against Mycobacterium frederiksbergense by dilution susceptibility test; type: functional
# [36] = system: Staphylococcus aureus; assay: Antibacterial activity against mupirocin-resistant Staphylococcus aureus V86 after 16 to 24 hrs by broth microdilution method; type: functional
# [37] = system: Klebsiella pneumoniae; assay: Antibacterial activity against Klebsiella pneumoniae LMG20218 by dilution susceptibility test; type: functional
# [38] = system: Streptococcus pneumoniae; assay: Antibacterial activity against macrolide-resistant Streptococcus pneumoniae 956 by dilution susceptibility test; type: functional
# [39] = system: Staphylococcus aureus; assay: Antibacterial activity against mupirocin-resistant Staphylococcus aureus V308 after 16 to 24 hrs by broth microdilution method; type: functional
# [40] = system: Streptococcus pneumoniae; assay: Antibacterial activity against Streptococcus pneumoniae ATCC 49619 by dilution susceptibility test; type: functional
# [41] = system: Staphylococcus aureus; assay: Antibacterial activity against mupirocin-resistant Staphylococcus aureus V321 after 16 to 24 hrs by broth microdilution method; type: functional
# [42] = system: Staphylococcus aureus; assay: Antibacterial activity against macrolide-resistant Staphylococcus aureus 6 Holland after 16 to 24 hrs by broth microdilution method; type: functional
molecule,measurement,setting,value
NC[C@H]1O[C@H](O[C@H]2[C@H](O)[C@@H](O[C@H]3O[C@H](CO)[C@@H](O)[C@H](N)[C@H]3O)[C@H](N)C[C@@H]2N)[C@H](O)[C@@H](O)[C@@H]1O [KANAMYCIN],MIC,[1],> 256 µg/mL
same,MIC,[2],> 256 µg/mL
GENTAMICIN,MIC,[1],> 256 µg/mL
same,MIC,[2],> 256 µg/mL
CCCCCCCCC[C@@H]1CC(O)=C(C(C)=O)C(=O)O1,MIC,[3],> 64 µg/mL
same,CC50 at 48 h,[4],71 µg/mL
same,MIC,[5],1.5 to 2.5 µg/mL
CCCCCCCCCC[C@@H]1CC(O)=C(C(=O)CCC)C(=O)O1,MIC,[3],8 to 16 µg/mL
same,CC50 at 48 h,[4],25 µg/mL
same,MIC,[5],0.6 to 0.8 µg/mL
CCCCCCCCCCC[C@@H]1CC(O)=C(C(=O)CCC)C(=O)O1,MIC,[3],< 4 µg/mL
same,CC50 at 48 h,[4],19 µg/mL
same,MIC,[5],0.1 to 0.2 µg/mL
CN[C@H](CC(C)C)C(=O)N[C@H]1C(=O)N[C@@H](CC(N)=O)C(=O)N[C@H]2C(=O)N[C@H]3C(=O)N[C@H](C(=O)N[C@H](C(=O)O)c4cc(O)cc(O)c4-c4cc3ccc4O)[C@H](O)c3ccc(c(Cl)c3)Oc3cc2cc(c3O[C@@H]2O[C@H](CO)[C@@H](O)[C@H](O)[C@H]2O[C@H]2C[C@](C)(N)[C@H](O)[C@H](C)O2)Oc2ccc(cc2Cl)[C@H]1O [VANCOMYCIN],MIC,[1],> 256 µg/mL
same,MIC,[2],> 256 µg/mL
NC[C@H]1O[C@H](O[C@H]2[C@H](O)[C@@H](O[C@H]3O[C@H](CO)[C@@H](O)[C@H](N)[C@H]3O)[C@H](N)C[C@@H]2N)[C@H](N)C[C@@H]1O [TOBRAMYCIN],MIC,[1],> 256 µg/mL
same,MIC,[2],> 256 µg/mL
CCCCCCCCC[C@@H]1CC(O)=C(C(=O)CCC)C(=O)O1,MIC,[6],2 µg/mL
same,MIC,[7],4 µg/mL
same,MIC,[8],2 µg/mL
same,MIC,[3],12 to 24 µg/mL
same,MIC,[9],2 µg/mL
same,MIC,[10],0.25 µg/mL
same,MIC,[11],2 µg/mL
same,MIC,[12],2 µg/mL
same,MIC,[13],≤ 0.1 µg/mL
same,MIC,[14],4 µg/mL
same,MIC,[15],4 µg/mL
same,CC50 at 48 h,[4],33 µg/mL
same,MIC,[16],2 µg/mL
same,MIC,[17],8 µg/mL
same,MIC,[18],4 µg/mL
same,MIC,[19],8 µg/mL
same,MIC,[20],≤ 1 µg/mL
same,MIC,[1],2 µg/mL
same,MIC,[21],8 µg/mL
same,MIC,[22],1 µg/mL
same,MIC,[23],4 µg/mL
same,CC50 at 48 h,[24],4.7 µg/mL
same,MIC,[25],8 µg/mL
same,MIC,[26],> 64 µg/mL
same,CC50 at 48 h,[27],40 µg/mL
same,MIC,[28],8 µg/mL
same,MIC,[29],8 µg/mL
same,MIC,[30],> 64 µg/mL
same,MIC,[31],8 µg/mL
same,MIC,[32],2 µg/mL
same,MIC,[33],2 µg/mL
same,MIC,[34],0.4 µg/mL
same,MIC,[35],≤ 0.5 µg/mL
same,MIC,[5],0.8 µg/mL
same,MIC,[36],0.1 to 0.25 µg/mL
same,MIC,[37],> 64 µg/mL
same,MIC,[38],4 µg/mL
same,MIC,[39],0.1 to 0.25 µg/mL
same,MIC,[40],4 µg/mL
same,MIC,[41],0.1 to 0.25 µg/mL
same,MIC,[42],1 µg/mL
same,MIC,[2],2 µg/mL
CCCCCCCCC[C@@H]1CC(O)=C(C(=O)CCCCC)C(=O)O1,MIC,[3],4 to 8 µg/mL
same,CC50 at 48 h,[4],15 µg/mL
same,MIC,[5],0.6 to 0.8 µg/mL
CCCCCCC[C@@H]1CC(O)=C(C(=O)CCC)C(=O)O1,MIC,[3],> 64 µg/mL
same,MIC,[5],1 to 2 µg/mL
CCCCCCCCC[C@@H]1CC(O)=C(C(=O)CCCC)C(=O)O1,MIC,[3],8 to 16 µg/mL
same,CC50 at 48 h,[4],36 µg/mL
same,MIC,[5],< 0.6 µg/mL
CCCCCCCCC[C@@H]1CC(O)=C(C(=O)CC)C(=O)O1,MIC,[3],32 to 48 µg/mL
same,CC50 at 48 h,[4],50 µg/mL
same,MIC,[5],0.7 µg/mL
CCCCCCCC[C@@H]1CC(O)=C(C(=O)CCC)C(=O)O1,MIC,[3],24 to 32 µg/mL
same,CC50 at 48 h,[4],30 µg/mL
same,MIC,[5],0.8 to 1.5 µg/mL
CCCC(=O)C1=C(O)C[C@@H](CC)OC1=O,MIC,[3],> 64 µg/mL
same,CC50 at 48 h,[4],> 100 µg/mL
same,MIC,[5],> 50 µg/mL

# Reference: ChEMBL document CHEMBL4138142, “Antibacterial 3,6-Disubstituted 4-Hydroxy-5,6-dihydro-2H-pyran-2-ones from Serratia plymuthica MF371-2” (J Nat Prod, 2017)
